The values below are quoted from earlier work in patent US9198859B2, “Concentrated mast cell stabilizing pharmaceutical formulations” (PARI Pharma GMBH, priority 2009, dated 2015).

For one data set, the system named is influenza virus. Particulars: mice.
The conditions of data set [1]: 6 months; nebulized 3 times daily IsoCrom (20 mg/2 ml) via eFlow; children.
Data set [2] relates to respiratory syncytial virus. Particulars: mice.

Regarding `O=C(O)c1cc(=O)c2c(OCC(O)COc3cccc4oc(C(=O)O)cc(=O)c34)cccc2o1` [DSCG, disodium cromoglycate], in the data set on influenza virus, the “protection from death induced by influenza virus infection” value is “protected mice from death”. The “therapeutic efficacy versus inhaled steroids” value in data set [1] is recorded as “as effective as inhaled steroids”. Moreover, in data set [2], the “protection against RSV induced illness” value was “protected against respiratory syncytial virus induced illness”.
